Molecular target: T1, human recombinant collagenase (Homo sapiens, UniProt P03956)
T1 construct: made in house; host or cells: E. coli
T1 sequence (P03956 100-469): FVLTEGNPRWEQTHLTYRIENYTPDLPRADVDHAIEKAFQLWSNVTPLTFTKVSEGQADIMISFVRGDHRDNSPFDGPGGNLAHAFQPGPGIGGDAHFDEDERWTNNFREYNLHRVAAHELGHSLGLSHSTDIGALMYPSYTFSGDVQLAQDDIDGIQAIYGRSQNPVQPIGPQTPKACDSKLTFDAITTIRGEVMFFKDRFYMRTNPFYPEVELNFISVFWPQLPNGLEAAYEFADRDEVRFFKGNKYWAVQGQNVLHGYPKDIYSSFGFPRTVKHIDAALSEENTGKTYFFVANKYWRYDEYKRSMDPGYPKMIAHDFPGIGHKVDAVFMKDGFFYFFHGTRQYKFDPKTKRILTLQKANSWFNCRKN
Assay: Collagenase inhibition assay
Format: biochemical
Conditions: 37° C., 18 h, acetylated 3H type 1 bovine collagen
Description: Procedure 2: The Ability of Test Compounds to Inhibit Collagenase was Investigated Using the Following Procedure.
Collagenase Inhibition Assay:
The potency of compounds to act as inhibitors of collagenase was determined by the method of Cawston and Barrett (Anal. Biochem. 99, 340-345, 1979), hereby incorporated by reference, whereby a 1 mM solution of the inhibitor being tested or dilutions thereof, was incubated at 37° C. for 18 h with collagen and human recombinant collagenase, from synovial fibroblasts cloned, expressed and purified from E. Coli, (buffered with 150 mM Tris, pH 7.6, containing 15 mM calcium chloride, 0.05% Brij 35, 200 mM sodium chloride and 0.02% sodium azide). The collagen was acetylated ^3H type 1 bovine collagen prepared by the method of Cawston and Murphy (methods in Enzymology 80, 711,1981) The samples were centrifuged to sediment undigested collagen and an aliquot of the radioactive supernatant removed for assay on a scintillation counter as a measure of hydrolysis. The collagenase activity in the presence of 1 mM inhibitor, or dilution thereof, was compared to activity in a control devoid of inhibitor and the results reported as that concentration effecting 50% of the collagenase (IC50).

IC50: > 10 µM
Compound: O=C(NO)[C@H]1CCCCN1S(=O)(=O)Cc1ccc2ccccc2c1 [Example 2, (R)-1-(Naphthalen-2-ylmethanesulfonyl)piperidine-2-carboxylic Acid N-hydroxyamide]

From patent publication US20030195191A1, “N-sulfonyl hydroxamic acid derivatives as inhibitors of cd23” (priority 2000, published 2003)
